Assays:
mice = test: Elevated plus maze test (EPM); assay type: in vivo
Protocol: The tests were performed on male white mice of the Albino Swiss strain, whose weight was between 24 and 30 g in Experimental Medicine Center, Medical University of Lublin, Poland. The animals were housed (four/five per cage). Before conducting the experimental tests, the animals were subjected to an adaptation that lasted seven days. This consisted of keeping them in a room with relatively constant conditions: a temperature of 22 ± 1 °C, a humidity of 55 ± 5% and lighting that mimicked the natural day and night rhythm (12 h/12 h). Constant access to food and water was provided. Standard feed—LSM Motycz pelleted feed—and tap water were used. Mice were randomly allocated to study groups. Each group was represented by 8–10 animals, depending on the research schedule. The experiments were performed according to the procedures set out in the regulations for animal experiments: National Institute of Health Guidelines for the Care and Use of Laboratory Animals (8th edition) and to the European Community Council Directive for the Care and Use of Laboratory Animals of 22 September 2010 (2010/63/EU). The study was approved by the Local Ethical Committee in Lublin (number of ethical approvals: 27/2023). Tested compounds: FG‐1, FG‐4, FG‐5, FG‐6, FG‐7, FG‐8, and FG‐18 were finely ground in mortars with the addition of the emulsifier Tween‐80. A suspension was obtained, which was then diluted with aqueous solution of 0.5% methylcellulose (tylose). The mixture was then administered intraperitoneally (i.p.) to the animals 60 min before the start of the experiments. Animals in the control groups received a 0.5% tylose solution. All substances were administered via the same route of administration in appropriate dose and volume of 0.1 mL per 10 g of animal body weight. Prior to the administration of the drug, the animals were weighed, during the interval between tests, they were provided with food, water, and constant living conditions. The EPM test is performed using an apparatus developed by Lister;^[ [44] ^] it consists of two open arms (30 × 5 cm) and two enclosed arms (30 × 5 × 15 cm) and a central platform (5 × 5 cm) it is placed at a height of 45 cm from the floor. The labyrinth was made of Plexiglas. The experiments were conducted in a darkened and quiet room. The central square of the maze was evenly illuminated with a dull red light. In the test, the mouse is observed for 5 min, and the number of entries into the open and closed arms and the time spent in them are recorded. The person carrying out the experiment remains constantly in the same place. Entering an individual arm is considered when the mouse has placed all four limbs outside the central square. The experiment measures: 1) the time spent by the mouse into the open arms of the maze, expressed as a percentage of the total exploration time, 2) the number of entries into the open arms of the maze, expressed as a percentage of the total number of entrances to both types of arms, and 3) the total number of entries into all arms of the maze—as a locomotor activity of the animals. If the mouse spends more time in the open arms than in the closed arms, this indicates an anxiolytic effect of the compounds tested. Exposed arms pose a risk of falling and therefore act as a mild stressor. Anxious mice are more likely to switch between open and enclosed arms and spend more time in enclosed arms than less anxious mice.^[ [11], [17], [44], [45] ^]

larval zebrafish = test: Light–dark transition assay in larval zebrafish; assay type: in vivo, zebrafish (Danio rerio); settings: 5 dpf larvae, 20 h incubation at maximum‐tolerated concentration (FG‐1 500 μM, FG‐18 25 μM)
Protocol: All experiments were conducted on zebrafish (Danio rerio) larvae up to 5 days post fertilization (dpf), therefore, in accordance with current European legislation, ethical permission to conduct assays was not required. However, housing and experimental procedures were performed in compliance with the National Institute of Health Guidelines for the Care and Use of Laboratory Animals and the European Union Directive of 22 September 2010 (2010/63/EU) on protecting animals used for scientific purposes. All efforts were taken to minimize larvae stress and suffering. Larvae were euthanized with an overdose of tricaine ([…]). […] Before the respective behavioral tests were conducted, larvae at 4 dpf were incubated for 20 h in different arylpiperazine derivatives solutions of maximum‐tolerated concentrations (MCTs), determined during toxicological screening.^[ [30], [32] ^] […] Basic locomotor activity was measured using an automated tracking device, Daniovision by Noldus, and the total distance traveled was quantified using EthoVision XT software of the same company (Wageningen, the Netherlands) over a 30 min long observation period. […] The PTZ‐induced hyperlocomotion (acute seizure assay) was assessed in 5 dpf larval zebrafish (after 20 h incubation with tested derivatives at MCTs). […] Similarly, the data were recorded as the distance traveled (mm) by larvae when exposed to alternating lightning. […]

[1] = 30 mg kg^−1 i.p. 60 min before test
[2] = 15 mg kg^−1 i.p. 60 min before test

SMILES | EPM, percentage of the open arm entries (mice; [1]) | EPM, percentage of time spent in open arms (mice; [1]) | larval behavior under the dark conditions (light–dark transition) (larval zebrafish) | EPM, percentage of the open arm entries (mice; 7.5 mg kg^−1 i.p. 60 min before test) | EPM, percentage of the open arm entries (mice; [2]) | EPM, percentage of time spent in open arms (mice; [2])
O=C(NCCCN1CCN(c2ccccc2C2=NCCS2)CC1)c1ccccn1 [FG‐1, N‐(3‐(4‐(2‐(4,5‐dihydrothiazol‐2‐yl) phenyl) piperazin‐1‐yl) propyl) picolinamide] | increase in the percentage of open arm entries | significant increase in time spent in open arms | influenced larval behavior under the dark conditions | – | – | –
O=C(NCCCN1CCN(c2ccc(C3=NCCS3)cc2)CC1)c1ccncc1 [FG‐6, N‐(3‐(4‐(4‐(4,5‐dihydrothiazol‐2‐yl) phenyl) piperazin‐1‐yl) propyl) isonicotinamide] | – | – | – | increase in the percentage of open arm entries | increase in the percentage of open arm entries | significant increase in time spent in open arms
O=C1C2C3C=CC(C3)C2C(=O)N1OCCCN1CCN(c2ccccc2C2=NCCS2)CC1 (stereo not shown) [FG‐7, 2‐(3‐(4‐(2‐(4,5‐dihydrothiazol‐2‐yl) phenyl) piperazin‐1‐yl) propoxy)‐3a,4,7,7a‐tetrahydro‐1 H‐4,7‐methanoisoindole‐1,3(2 H)‐dione] | increase in the percentage of open arm entries | – | – | – | – | significant increase in time spent in open arms
O=C(NCCCN1CCN(c2ccc(C3=NCCS3)cc2)CC1)C1CC2C=CC1C2 (stereo not drawn) [FG‐18, Endo‐ N‐(3‐(4‐(4‐(4,5‐dihydrothiazol‐2‐yl)phenyl)piperazin‐1‐yl)propyl) bicyclo[2.2.1]hept‐5‐ene‐2‐carboxamide] | – | significant increase in time spent in open arms | influenced larval behavior under the dark conditions | – | – | –

Source: publication PMC12321279, “Novel 4,5‐Dihydrothiazole‐Phenylpiperazine Derivatives: Synthesis, Docking Studies and Pharmacological Evaluation as Serotonergic Agents” (Chemmedchem, 2025)
